“Also recorded” adds a separate entry of the source.

Type in all cases: cell-based
One experiment concerns cyclin D1. Kind of experiment: Cyclin D1 expression after KED compound. Particulars: as a result of RASSF1A induction. As to the method: (§1) Anticancer effects and activation of a tumor suppressor gene, RASSF1A) KED-3-63-1, KED 3-63-2 and KED 3-81 were assessed.
A further experiment deals with RASSF1A. Kind of experiment: Activation of tumor suppressor gene RASSF1A by KED compounds. As to the method: as §1
For a further experiment, the system named is DNA synthesis. Kind of experiment: Inhibition of DNA synthesis / anticancer effects of KED compounds. Conditions: in the assay used (inhibition of DNA synthesis, FIGS. 7A-7D). As to the method:
FIGS. 7A-7D. FIGS. 7A-7D show the dose-dependent inhibition of DNA synthesis with KED compounds.
as §1

As for `COc1ccc2c(c1)[nH]c1c(C)c3c(cc12)C=CC(C)(CCC=C(C)C)O3` (centres unmarked) [KED-3-63-1], in the experiment on cyclin D1, the “cyclin D1 expression” value is recorded as “down-regulated”. The “induction of RASSF1A” value in the experiment on RASSF1A is “induced RASSF1A”. Further, the anticancer effects entry in the experiment with DNA synthesis is “have anti-cancer effects; also recorded: have anticancer effects”. Regarding `COc1ccc2c(c1)[nH]c1c(C)c(OCc3ccccc3)ccc12` [KED-3-63-2], the anticancer effects entry in the experiment on DNA synthesis was “does not; also recorded: no anti-cancer effects”. `COc1ccc2c(c1)[nH]c1cc(OCc3ccccc3)c(C)cc12` [KED-3-81]: in the experiment on DNA synthesis, the anticancer effects result is given as “have anti-cancer effects; also recorded: have anticancer effects”.

(Values after patent US20100130579A1, “CANCER THERAPY” (Georgetown University, priority 2006, published 2010).)
